Reference: PubChem BioAssay (NCI)
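A five-concentration, 48-hour dose response in 96-well plates underlies each endpoint, interpolated linearly between surrounding concentrations. GI50 marks 50% less growth. The concentration for full growth arrest is given as TGI.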

Legend:
Assay in all cases: NCI anticancer screen, dose series, 48 h
SK-OV-3 ovarian = system: SK-OV-3 ovarian
SK-MEL-5 melanoma = system: SK-MEL-5 melanoma
786-0 renal = system: 786-0 renal
OVCAR-5 ovarian = system: OVCAR-5 ovarian
TK-10 renal = system: TK-10 renal
IGROV1 ovarian = system: IGROV1 ovarian
OVCAR-8 ovarian = system: OVCAR-8 ovarian
U251 CNS = system: U251 CNS
HT29 colon = system: HT29 colon
SK-MEL-2 melanoma = system: SK-MEL-2 melanoma
NCI-H226 lung = system: NCI-H226 lung
KM12 colon = system: KM12 colon
HCC-2998 colon = system: HCC-2998 colon
T-47D breast = system: T-47D breast
MCF7 breast = system: MCF7 breast
SF-539 CNS = system: SF-539 CNS
EKVX NSCLC = system: EKVX NSCLC
NCI/ADR-RES ovarian = system: NCI/ADR-RES ovarian
SW-620 colon = system: SW-620 colon
SF-268 CNS = system: SF-268 CNS
OVCAR-3 ovarian = system: OVCAR-3 ovarian
SF-295 CNS = system: SF-295 CNS
UACC-62 melanoma = system: UACC-62 melanoma
HS 578T breast = system: HS 578T breast
UACC-257 melanoma = system: UACC-257 melanoma
NCI-H23 lung = system: NCI-H23 lung
HOP-62 NSCLC = system: HOP-62 NSCLC
M14 melanoma = system: M14 melanoma
MALME-3M melanoma = system: MALME-3M melanoma
SN12C renal = system: SN12C renal
NCI-H460 lung = system: NCI-H460 lung
HCT-116 colon = system: HCT-116 colon
UO-31 renal = system: UO-31 renal
HL-60(TB) leukemia = system: HL-60(TB) leukemia
A549 NSCLC = system: A549 NSCLC
HOP-92 NSCLC = system: HOP-92 NSCLC
SK-MEL-28 melanoma = system: SK-MEL-28 melanoma
PC-3 prostate = system: PC-3 prostate
CCRF-CEM leukemia = system: CCRF-CEM leukemia
SNB-19 CNS = system: SNB-19 CNS
NCI-H522 lung = system: NCI-H522 lung
BT-549 breast = system: BT-549 breast
COLO 205 colon = system: COLO 205 colon
K-562 leukemia = system: K-562 leukemia
RPMI-8226 leukemia = system: RPMI-8226 leukemia
LOX IMVI melanoma = system: LOX IMVI melanoma
CAKI-1 renal = system: CAKI-1 renal
ACHN renal = system: ACHN renal
HCT-15 colon = system: HCT-15 colon
A498 renal = system: A498 renal
MDA-MB-231 breast = system: MDA-MB-231 breast
RXF 393 renal = system: RXF 393 renal
MDA-MB-435 = system: MDA-MB-435
DU-145 prostate = system: DU-145 prostate

Cc1cc(C2CC(O)C(CO)O2)c(Cl)cc1Cl (stereo not drawn)
GI50 (SK-OV-3 ovarian): > 100 µM
TGI (SK-OV-3 ovarian): > 100 µM
GI50 (SK-MEL-5 melanoma): > 100 µM
TGI (SK-MEL-5 melanoma): > 100 µM
GI50 (786-0 renal): > 100 µM
TGI (786-0 renal): > 100 µM
GI50 (OVCAR-5 ovarian): > 100 µM
TGI (OVCAR-5 ovarian): > 100 µM
GI50 (TK-10 renal): > 100 µM
TGI (TK-10 renal): > 100 µM
GI50 (IGROV1 ovarian): 46.3 µM
TGI (IGROV1 ovarian): > 100 µM
GI50 (OVCAR-8 ovarian): > 100 µM
TGI (OVCAR-8 ovarian): > 100 µM
GI50 (U251 CNS): > 100 µM
TGI (U251 CNS): > 100 µM
GI50 (HT29 colon): > 100 µM
TGI (HT29 colon): > 100 µM
GI50 (SK-MEL-2 melanoma): > 100 µM
TGI (SK-MEL-2 melanoma): > 100 µM
GI50 (NCI-H226 lung): 56.4 µM
TGI (NCI-H226 lung): > 100 µM
GI50 (KM12 colon): > 100 µM
TGI (KM12 colon): > 100 µM
GI50 (HCC-2998 colon): > 100 µM
TGI (HCC-2998 colon): > 100 µM
GI50 (T-47D breast): > 100 µM
TGI (T-47D breast): > 100 µM
GI50 (MCF7 breast): > 100 µM
TGI (MCF7 breast): > 100 µM
GI50 (SF-539 CNS): > 100 µM
TGI (SF-539 CNS): > 100 µM
GI50 (EKVX NSCLC): 98.4 µM
TGI (EKVX NSCLC): > 100 µM
GI50 (NCI/ADR-RES ovarian): > 100 µM
TGI (NCI/ADR-RES ovarian): > 100 µM
GI50 (SW-620 colon): > 100 µM
TGI (SW-620 colon): > 100 µM
GI50 (SF-268 CNS): > 100 µM
TGI (SF-268 CNS): > 100 µM
GI50 (OVCAR-3 ovarian): > 100 µM
TGI (OVCAR-3 ovarian): > 100 µM
GI50 (SF-295 CNS): > 100 µM
TGI (SF-295 CNS): > 100 µM
GI50 (UACC-62 melanoma): 39.9 µM
TGI (UACC-62 melanoma): > 100 µM
GI50 (HS 578T breast): 84.8 µM
TGI (HS 578T breast): > 100 µM
GI50 (UACC-257 melanoma): > 100 µM
TGI (UACC-257 melanoma): > 100 µM
GI50 (NCI-H23 lung): > 100 µM
TGI (NCI-H23 lung): > 100 µM
GI50 (HOP-62 NSCLC): > 100 µM
TGI (HOP-62 NSCLC): > 100 µM
GI50 (M14 melanoma): > 100 µM
TGI (M14 melanoma): > 100 µM
GI50 (MALME-3M melanoma): > 100 µM
TGI (MALME-3M melanoma): > 100 µM
GI50 (SN12C renal): > 100 µM
TGI (SN12C renal): > 100 µM
GI50 (NCI-H460 lung): > 100 µM
TGI (NCI-H460 lung): > 100 µM
GI50 (HCT-116 colon): > 100 µM
TGI (HCT-116 colon): > 100 µM
GI50 (UO-31 renal): > 100 µM
TGI (UO-31 renal): > 100 µM
GI50 (HL-60(TB) leukemia): > 100 µM
TGI (HL-60(TB) leukemia): > 100 µM
GI50 (A549 NSCLC): > 100 µM
TGI (A549 NSCLC): > 100 µM
GI50 (HOP-92 NSCLC): 89.4 µM
TGI (HOP-92 NSCLC): > 100 µM
GI50 (SK-MEL-28 melanoma): > 100 µM
TGI (SK-MEL-28 melanoma): > 100 µM
GI50 (PC-3 prostate): 77.8 µM
TGI (PC-3 prostate): > 100 µM
GI50 (CCRF-CEM leukemia): > 100 µM
TGI (CCRF-CEM leukemia): > 100 µM
GI50 (SNB-19 CNS): > 100 µM
TGI (SNB-19 CNS): > 100 µM
GI50 (NCI-H522 lung): > 100 µM
TGI (NCI-H522 lung): > 100 µM
GI50 (BT-549 breast): > 100 µM
TGI (BT-549 breast): > 100 µM
GI50 (COLO 205 colon): > 100 µM
TGI (COLO 205 colon): > 100 µM
GI50 (K-562 leukemia): > 100 µM
TGI (K-562 leukemia): > 100 µM
GI50 (RPMI-8226 leukemia): 70.4 µM
TGI (RPMI-8226 leukemia): > 100 µM
GI50 (LOX IMVI melanoma): 84.3 µM
TGI (LOX IMVI melanoma): > 100 µM
GI50 (CAKI-1 renal): > 100 µM
TGI (CAKI-1 renal): > 100 µM
GI50 (ACHN renal): > 100 µM
TGI (ACHN renal): > 100 µM
GI50 (HCT-15 colon): > 100 µM
TGI (HCT-15 colon): > 100 µM
GI50 (A498 renal): 58.2 µM
TGI (A498 renal): > 100 µM
GI50 (MDA-MB-231 breast): 69.5 µM
TGI (MDA-MB-231 breast): > 100 µM
GI50 (RXF 393 renal): > 100 µM
TGI (RXF 393 renal): > 100 µM
GI50 (MDA-MB-435): > 100 µM
TGI (MDA-MB-435): > 100 µM
GI50 (DU-145 prostate): > 100 µM
TGI (DU-145 prostate): > 100 µM
